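A five-concentration, 48-hour dose response in 96-well plates underlies each endpoint, interpolated linearly between surrounding concentrations. Abbreviation: GI50, concentration required for 50% inhibition of growth.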 Calls of active or inactive are those of the source. Cut-off read from the data, not from the text of the source: active = GI50 up to about 1.1 µM and inactive = higher.
Legend:
Experiment in all cases: inhibition of tumour cell growth, NCI panel, 48 h
SNB-19 = system: SNB-19
OVCAR-4 = system: OVCAR-4
SW-620 = system: SW-620
SF-268 = system: SF-268
SF-295 = system: SF-295
MDA-MB-435 = system: MDA-MB-435
NCI-H460 = system: NCI-H460
LOX IMVI = system: LOX IMVI
NCI-H226 = system: NCI-H226
UO-31 = system: UO-31
SNB-75 = system: SNB-75
CAKI-1 = system: CAKI-1
HT-29 = system: HT-29
OVCAR-5 = system: OVCAR-5
ACHN = system: ACHN
SK-MEL-5 = system: SK-MEL-5
HCC 2998 = system: HCC 2998
MDA-MB-231 = system: MDA-MB-231
HCT-116 = system: HCT-116
M14 = system: M14

Measured: GI50

O=c1[nH]c(=O)n(C2OC(CO)C(O)C2O)c2ncc(-c3ccc(-c4ccccc4)cc3)nc12 (centres undefined)
inactive: SNB-19 > 20 µM | OVCAR-4 > 20 µM | SW-620 > 20 µM | SF-268 > 20 µM | SF-295 > 20 µM | MDA-MB-435 > 20 µM | NCI-H460 > 20 µM | LOX IMVI > 20 µM | NCI-H226 > 20 µM | UO-31 > 20 µM | SNB-75 > 20 µM | CAKI-1 > 20 µM | HT-29 > 20 µM | OVCAR-5 > 20 µM | ACHN > 20 µM | SK-MEL-5 > 20 µM | HCC 2998 > 20 µM | MDA-MB-231 > 20 µM | HCT-116 > 20 µM

CCOc1ccc(NC(=O)/C(=N\N)C(C(=O)OC)c2nc3ccc(Cl)cc3nc2O)cc1 (centres undefined)
inactive: OVCAR-4 > 100 µM | SW-620 > 100 µM | SF-268 > 100 µM | SF-295 > 100 µM | MDA-MB-435 > 100 µM | NCI-H460 > 100 µM | LOX IMVI > 100 µM | NCI-H226 > 100 µM | UO-31 72.3 µM | SNB-75 > 100 µM | CAKI-1 > 100 µM | HT-29 > 100 µM | OVCAR-5 > 100 µM | ACHN 45 µM | SK-MEL-5 > 100 µM | HCC 2998 > 100 µM | M14 > 100 µM | MDA-MB-231 > 100 µM | HCT-116 > 100 µM

CC(=O)CC(OC(C)=O)C1=CCC2C(CC1C)OC(=O)C2C (centres undefined)
inactive: SNB-19 > 100 µM | OVCAR-4 > 100 µM | SW-620 > 100 µM | SF-268 > 100 µM | SF-295 > 100 µM | MDA-MB-435 > 100 µM | NCI-H460 > 100 µM | LOX IMVI 88.5 µM | NCI-H226 > 100 µM | SNB-75 > 100 µM | CAKI-1 > 100 µM | HT-29 > 100 µM | OVCAR-5 > 100 µM | ACHN > 100 µM | SK-MEL-5 > 100 µM | HCC 2998 > 100 µM | M14 > 100 µM | MDA-MB-231 > 100 µM | HCT-116 > 100 µM

OCC(CCc1ccccc1I)C1=CCC2(CC1)OCCO2 (centres undefined)
inactive: SNB-19 18.5 µM | OVCAR-4 18.9 µM | SW-620 23.4 µM | SF-268 17.8 µM | SF-295 16.4 µM | MDA-MB-435 15.7 µM | NCI-H460 26.5 µM | LOX IMVI 14.9 µM | NCI-H226 28.4 µM | UO-31 17.8 µM | SNB-75 19.4 µM | CAKI-1 24.7 µM | HT-29 18.2 µM | OVCAR-5 15.7 µM | ACHN 28.7 µM | SK-MEL-5 14.6 µM | HCC 2998 20.4 µM | M14 20 µM | MDA-MB-231 23.9 µM

O=C(OCC(OC(=O)c1ccccc1)C1CC(C(O)C2CCCCC2)C(=O)O1)c1ccccc1 (centres undefined)
inactive: SNB-19 59 µM | OVCAR-4 32.7 µM | SW-620 42.3 µM | SF-268 91.8 µM | SF-295 86.7 µM | MDA-MB-435 > 100 µM | NCI-H460 25.9 µM | LOX IMVI 37.4 µM | NCI-H226 87.7 µM | UO-31 > 100 µM | SNB-75 51.4 µM | CAKI-1 > 100 µM | OVCAR-5 > 100 µM | ACHN > 100 µM | SK-MEL-5 17.3 µM | HCC 2998 47.9 µM | M14 63.7 µM | MDA-MB-231 > 100 µM | HCT-116 31.6 µM

[O-]/[N+](=N\c1ccccc1CO)c1ccccc1CO
inactive: SNB-19 > 100 µM | OVCAR-4 > 100 µM | SW-620 > 100 µM | SF-268 > 100 µM | MDA-MB-435 > 100 µM | NCI-H460 > 100 µM | LOX IMVI > 100 µM | NCI-H226 > 100 µM | UO-31 > 100 µM | SNB-75 84.7 µM | CAKI-1 > 100 µM | HT-29 > 100 µM | OVCAR-5 > 100 µM | SK-MEL-5 > 100 µM | HCC 2998 > 100 µM | M14 > 100 µM | MDA-MB-231 > 100 µM | HCT-116 > 100 µM

Cc1ccc(/C=N/Nc2ccc3ccccc3n2)s1
inactive: SNB-19 21.3 µM | OVCAR-4 20.7 µM | SW-620 23.2 µM | SF-268 60.1 µM | SF-295 16.4 µM | MDA-MB-435 15.8 µM | LOX IMVI 17.1 µM | NCI-H226 80.7 µM | UO-31 > 100 µM | SNB-75 > 100 µM | CAKI-1 > 100 µM | HT-29 7.46 µM | OVCAR-5 27.3 µM | ACHN 17.3 µM | SK-MEL-5 9.4 µM | HCC 2998 15.3 µM | M14 16.9 µM | MDA-MB-231 15.5 µM | HCT-116 7.78 µM

CC1=CC(C)(C)[C@H]2O[C@@]3(O)C[C@]4(C)[C@H]5C[C@@](C(C)C)(O[C@H]4c4ccoc4)O[C@H]4[C@]5(C3)O[C@@]1(O)[C@]24O
inactive: SNB-19 45.4 µM | OVCAR-4 54.2 µM | SW-620 > 100 µM | SF-268 > 100 µM | SF-295 > 100 µM | MDA-MB-435 > 100 µM | LOX IMVI > 100 µM | NCI-H226 > 100 µM | UO-31 > 100 µM | SNB-75 12.3 µM | CAKI-1 > 100 µM | HT-29 > 100 µM | OVCAR-5 > 100 µM | ACHN > 100 µM | SK-MEL-5 44.2 µM | HCC 2998 > 100 µM | M14 > 100 µM | MDA-MB-231 81.3 µM | HCT-116 61.8 µM

Nc1nnc(-c2ccco2)c(-c2ccco2)n1
inactive: SNB-19 > 100 µM | OVCAR-4 > 100 µM | SW-620 > 100 µM | SF-268 > 100 µM | SF-295 > 100 µM | MDA-MB-435 > 100 µM | NCI-H460 > 100 µM | NCI-H226 > 100 µM | UO-31 49.9 µM | SNB-75 86.9 µM | CAKI-1 > 100 µM | HT-29 > 100 µM | OVCAR-5 > 100 µM | ACHN > 100 µM | SK-MEL-5 > 100 µM | HCC 2998 > 100 µM | M14 > 100 µM | MDA-MB-231 > 100 µM | HCT-116 > 100 µM

O=C1CCc2ccc(O)c(c2)Oc2ccc(cc2)C(Sc2ccccc2)CCO1 (centres undefined)
inactive: SNB-19 19.7 µM | OVCAR-4 12.2 µM | SW-620 17 µM | SF-268 15.7 µM | SF-295 17.4 µM | MDA-MB-435 17.1 µM | LOX IMVI 12.5 µM | NCI-H226 15 µM | UO-31 14.4 µM | SNB-75 6.49 µM | CAKI-1 14.1 µM | HT-29 15.9 µM | OVCAR-5 17.1 µM | ACHN 15.1 µM | SK-MEL-5 12.1 µM | HCC 2998 17.1 µM | M14 15.1 µM | MDA-MB-231 3.85 µM | HCT-116 16.2 µM
